In patent publication US20080241208A1, “Methods, Compositions and Devices For Promoting Anglogenesis” (priority 2005, published 2008):

Legend:
[1] = tested on: Rabbits; test: In-vivo angiogenesis rabbit subcutaneous implant studies
Description: Rabbits were implanted subcutaneously with nitric oxide generating agent dibenzo[e,k]-2,3,8,9-tetramethyl-1,4,7,10-tetraaza-cyclododeca-1,3,7,9-tetraene, cyclen and plain polymer disks.

[2] = tested on: HUVECs; test: In-vitro angiogenesis model: network formation in collagen gel matrix; assay type: cell-based; details: pulsed with PMA, bFGF and NOC18 (10-9) for 2 hr followed by PMA, bFGF and VEGF-C for 70 hr; AngioQuant; FIG. 3
Description: FIG. 4 depicts network formation in HUVECs cultured in collagen gel matrix and treated with PMA, bFGF, and VEGF-C for 72 hr (Positive control). […] Image on left of each figure is stained with phalloidin (cytoskeletal Actin-F marker) and the nuclear dye, Hoechst. Image on right depicts network formation (red lines) used by AngioQuant quantification program (Niemiströ et al 2005). Magnification=4×. The number of networks is 48 in FIG. 3, 44 in FIG. 4, 12 in FIG. 5.

SMILES	blood vessel formation around disks ([1]; explants sectioned and stained with H&E, 20× magnification)	angiogenic activity versus control ([1]; subcutaneous polymer disk explants at 28 d and 8 weeks)	number of networks [2]
CC1=C(C)N=c2ccccc2=NC(C)=C(C)N=c2ccccc2=N1 [dibenzo[e,k]-2,3,8,9-tetramethyl-1,4,7,10-tetraaza-cyclododeca-1,3,7,9-tetraene]	increased blood vessel formation	increased angiogenic activity	–
NCCN(CCN)/[N+]([O-])=N/O [NOC18]	–	–	48
